Experimental data from patent publication US20230111310A1, “CARBOXYLIC ACID DERIVATIVE-SUBSTITUTED IMINO ARYL COMPOUND, PREPARATION METHOD THEREFOR, HERBICIDAL COMPOSITION AND USE THEREOF” (Qingdao Kingagroot Chemical Compound Co., Ltd., priority 2020, published 2023).

Tests used:
Format in all cases: in vivo
Echinochloa crusgalli = test: Weeding effect in post-emergence stage; details: Dose 15 g/ha; level of fresh weight growth control rate
How it was run: (§1)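 Read-out is growth control rate, counted 3 weeks post-spray and averaged over three repeats. Greenhouse plants at the 2-3 leaf stage received spray-tower application at 500, 250, 125, 60, 30, 15 or 7.5 g/ha, with methyl oleate EC (1.5 liter/ha) and Tween 80 added.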

Setaria viridis [1] = test: Weeding effect in pre-emergence stage; details: 30 g/ha, 4 weeks
Method: (§2) The activity level criteria for plant damage (i.e., growth control rate) are as follows:
(§3) The aforementioned seeds of monocotyledonous and dicotyledonous weeds and main crops were put into a plastic pot loaded with soil and covered with 0.5-2 cm soil. The test compounds of the present invention was dissolved with acetone, then added with tween 80, diluted by a certain amount of water to reach a certain concentration, and sprayed immediately after sowing. The obtained seeds were incubated for 4 weeks in the greenhouse after spraying and the test results were observed. It was observed that the herbicide mostly had excellent effect at the application rate of 500, 250, 125, 60, 30, 15, 7.5 g/ha, especially to weeds such as Echinochloa crusgalli. Digitaria sanguinalis and Abutilon theophrasti, etc. And many compounds had good selectivity for corn, cotton, wheat, rice, soybean, and peanut etc. In addition, evaluate the weed control effect with the above activity standard level.

Amaranthus retroflexus = test: Weeding effect in pre-emergence stage; details: 30 g/ha, 4 weeks
Method: as §2, §3

Veronica didyma Tenore = test: Weeding effect in pre-emergence stage; details: 30 g/ha, 4 weeks
Method: as §2, §3

Capsella bursa-pastoris = test: Weeding effect in pre-emergence stage; details: 30 g/ha, 4 weeks
Method: as §2, §3

Abutilon theophrasti [2] = test: Weeding effect in pre-emergence stage; details: 30 g/ha, 4 weeks
Method: as §2, §3

Descurainia sophia = test: Weeding effect in pre-emergence stage; details: 30 g/ha, 4 weeks
Method: as §2, §3

Peanut = test: Pre-emergence stage, crop selectivity; details: 30 g/ha, 4 weeks
Method: as §2, §3

cotton = test: Pre-emergence stage, crop selectivity; details: 30 g/ha, 4 weeks
Method: as §2, §3

Soybeans = test: Pre-emergence stage, crop selectivity; details: 30 g/ha, 4 weeks
Method: as §2, §3

corn = test: Pre-emergence stage, crop selectivity; details: 30 g/ha, 4 weeks
Method: as §2, §3

Alopecurus japonicus = test: Weeding effect in post-emergence stage; details: Dose 15 g/ha; level of fresh weight growth control rate
How it was run: as §1

Setaria viridis [3] = test: Weeding effect in post-emergence stage; details: Dose 15 g/ha; level of fresh weight growth control rate
How it was run: as §1

Abutilon theophrasti [4] = test: Weeding effect in post-emergence stage; details: Dose 15 g/ha; level of fresh weight growth control rate
How it was run: as §1

Eleusine indica = test: Weeding effect in post-emergence stage; details: Dose 15 g/ha; level of fresh weight growth control rate
How it was run: as §1

Digitaria sanguinalis = test: Weeding effect in post-emergence stage; details: Dose 15 g/ha; level of fresh weight growth control rate
How it was run: as §1

| SMILES | Weeding effect in post-emergence stage, Echinochloa crusgalli (Echinochloa crusgalli) | activity level (growth control rate) Setaria viridis (Setaria viridis [1]) | activity level (growth control rate) Amaranthus retroflexus (Amaranthus retroflexus) | activity level (growth control rate) Veronica didyma Tenore (Veronica didyma Tenore) | activity level (growth control rate) Capsella bursa-pastoris (Capsella bursa-pastoris) | activity level (growth control rate) Abutilon theophrasti (Abutilon theophrasti [2]) | activity level (growth control rate) Descurainia sophia (Descurainia sophia) | plant damage level Peanut (Peanut) | plant damage level Cotton (cotton) | plant damage level Soybeans (Soybeans) | plant damage level Corn (corn) | Weeding effect in post-emergence stage, Alopecurus japonicus (Alopecurus japonicus) | Weeding effect in post-emergence stage, Setaria viridis (Setaria viridis [3]) | Weeding effect in post-emergence stage, Abutilon theophrasti (Abutilon theophrasti [4]) | Weeding effect in post-emergence stage, Eleusine indica (Eleusine indica) | Weeding effect in post-emergence stage, Digitaria sanguinalis (Digitaria sanguinalis) |
| --- | --- | --- | --- | --- | --- | --- | --- | --- | --- | --- | --- | --- | --- | --- | --- | --- |
| C=CCOC(=O)[C@@H](C)O/N=C/c1cc(-n2c(=O)cc(C(F)(F)F)n(C)c2=O)c(F)cc1Cl [208(R)] | 5 (Level 5: growth control rate is above 85%) | 5 (Level 5: growth control rate is above 85%) | 5 (Level 5: growth control rate is above 85%) | 5 (Level 5: growth control rate is above 85%) | 5 (Level 5: growth control rate is above 85%) | 5 (Level 5: growth control rate is above 85%) | 5 (Level 5: growth control rate is above 85%) | 0 (Level 0: growth control rate is less than 5%) | 0 (Level 0: growth control rate is less than 5%) | 0 (Level 0: growth control rate is less than 5%) | 0 (Level 0: growth control rate is less than 5%) | 5 (Level 5: growth control rate is above 85%) | 5 (Level 5: growth control rate is above 85%) | 5 (Level 5: growth control rate is above 85%) | 5 (Level 5: growth control rate is above 85%) | 5 (Level 5: growth control rate is above 85%) |
| C[C@@H](O/N=C/c1cc(-n2c(=O)cc(C(F)(F)F)n(C)c2=O)c(F)cc1Cl)C(=O)OCCF [216(R)] | 5 (Level 5: growth control rate is above 85%) | 5 (Level 5: growth control rate is above 85%) | 5 (Level 5: growth control rate is above 85%) | 5 (Level 5: growth control rate is above 85%) | 5 (Level 5: growth control rate is above 85%) | 5 (Level 5: growth control rate is above 85%) | 5 (Level 5: growth control rate is above 85%) | 0 (Level 0: growth control rate is less than 5%) | 0 (Level 0: growth control rate is less than 5%) | 0 (Level 0: growth control rate is less than 5%) | 0 (Level 0: growth control rate is less than 5%) | 4 (Level 4: growth control rate is greater than or equal to 60% and less than 85%) | 5 (Level 5: growth control rate is above 85%) | 5 (Level 5: growth control rate is above 85%) | 5 (Level 5: growth control rate is above 85%) | 5 (Level 5: growth control rate is above 85%) |
| CCOC(=O)COC(=O)[C@@H](C)O/N=C/c1cc(-n2c(=O)cc(C(F)(F)F)n(C)c2=O)c(F)cc1Cl [239(R)] | 5 (Level 5: growth control rate is above 85%) | 5 (Level 5: growth control rate is above 85%) | 5 (Level 5: growth control rate is above 85%) | 5 (Level 5: growth control rate is above 85%) | 5 (Level 5: growth control rate is above 85%) | 5 (Level 5: growth control rate is above 85%) | 5 (Level 5: growth control rate is above 85%) | 0 (Level 0: growth control rate is less than 5%) | 0 (Level 0: growth control rate is less than 5%) | 0 (Level 0: growth control rate is less than 5%) | 0 (Level 0: growth control rate is less than 5%) | 5 (Level 5: growth control rate is above 85%) | 5 (Level 5: growth control rate is above 85%) | 5 (Level 5: growth control rate is above 85%) | 5 (Level 5: growth control rate is above 85%) | 5 (Level 5: growth control rate is above 85%) |
| CCOC(=O)OC(C)OC(=O)[C@@H](C)O/N=C/c1cc(-n2c(=O)cc(C(F)(F)F)n(C)c2=O)c(F)cc1Cl (stereo partly drawn) [246(R)] | 5 (Level 5: growth control rate is above 85%) | 5 (Level 5: growth control rate is above 85%) | 5 (Level 5: growth control rate is above 85%) | 5 (Level 5: growth control rate is above 85%) | 5 (Level 5: growth control rate is above 85%) | 5 (Level 5: growth control rate is above 85%) | 5 (Level 5: growth control rate is above 85%) | 0 (Level 0: growth control rate is less than 5%) | 0 (Level 0: growth control rate is less than 5%) | 0 (Level 0: growth control rate is less than 5%) | 0 (Level 0: growth control rate is less than 5%) | 5 (Level 5: growth control rate is above 85%) | 5 (Level 5: growth control rate is above 85%) | 5 (Level 5: growth control rate is above 85%) | 5 (Level 5: growth control rate is above 85%) | 5 (Level 5: growth control rate is above 85%) |
| CC(C)=NOC(=O)[C@@H](C)O/N=C/c1cc(-n2c(=O)cc(C(F)(F)F)n(C)c2=O)c(F)cc1Cl [248(R)] | 5 (Level 5: growth control rate is above 85%) | 5 (Level 5: growth control rate is above 85%) | 5 (Level 5: growth control rate is above 85%) | 5 (Level 5: growth control rate is above 85%) | 5 (Level 5: growth control rate is above 85%) | 5 (Level 5: growth control rate is above 85%) | 5 (Level 5: growth control rate is above 85%) | 0 (Level 0: growth control rate is less than 5%) | 0 (Level 0: growth control rate is less than 5%) | 0 (Level 0: growth control rate is less than 5%) | 0 (Level 0: growth control rate is less than 5%) | 5 (Level 5: growth control rate is above 85%) | 5 (Level 5: growth control rate is above 85%) | 5 (Level 5: growth control rate is above 85%) | 5 (Level 5: growth control rate is above 85%) | 5 (Level 5: growth control rate is above 85%) |
